{"source": "patent US8106092B2", "about": "“Treatment of solid cancers” (priority 2004, dated 2012)", "assay_type_in_all_cases": "in vivo, C57BL/6 mice", "key": {"[1]": {"test_system": "Lewis lung-OVA tumors", "experiment": "Topical PEP005 treatment of Lewis lung-OVA tumors: tumor growth and SIINFEKL-specific CD8+ T-cell ELISPOT", "protocol": "B16 and B16 cells stably expressing ovalbumin (B16-OVA)were grown s.c. in C57BL/6 mice as described previously (Ogbourne et al, Cancer Res 64:2833-2839, 2004; Anraku et al, J Virol 76:3791-3799, 2002). Lung metastases were established as described (Zeh et al, J Immunol 162:989-994, 1999). Lewis lung-OVA (Nelson et al, J Immunol 166:5557-5566, 2001) were grown s.c. in C57BL/6 as described (Lenarczyk et al, Vaccine 22:963-974, 2004).\nTumors were treated by topical or intratumoral (i.t.) injection (using a 26 gauge needle) of (i) PEP0005 dissolved in acetone and then RPMI 1640 (final concentration of acetone 4%), or (ii) PEP005 formulated in PEG400.\n(§1) Mouse splenocytes were analyzed by ex vivo IFNγ ELISPOT essentially as described previously (Le et al, Vaccine 19:4669-4675, 2001), but using MultiScreen-IP plates (Millipore) and 25 IU/ml of recombinant human IL-2 (Cetus).\nLewis lung-OVA tumors were established on five C57/B16 mice; when they had reached 10-20 mm^2, they were treated topically with PEP005. […] A parallel group of tumor-bearing mice (M7-12) were treated (vehicle only) and grew rapidly as expected with mean size±SD shown (FIG. 2, V(M7-12)). […] The sensitivity of this assay is about five spots per 10^6 splenocytes. […] Thus, again PEP005 treatment was associated with induction of anti-cancer CD8^+ T-cells."}, "[2]": {"test_system": "SIINFEKL [SEQ ID NO:2]-specific CD8^+ T-cells", "experiment": "SIINFEKL-specific CD8+ T-cells by IFNγ ELISPOT after i.t. PEP005 treatment of Lewis lung-OVA", "protocol": "FIGS. 4A to D are graphical representations showing protection against secondary tumors following cure of primary tumors with PEP005. (A) C57BL/6 mice received 5×10^5 Lewis lung-OVA s.c. on the back on day less 7 (d−7). When these primary tumors had reached an average 13.6 mm^2±1.8 SE (range 10-25 mm^2) on d0 they were treated once with 16 μg of PEP005 delivered i.t. In eight mice these primary tumors were cured, and these mice received 5×10^5 Lewis lung-OVA s.c. on d4 on the opposite flank from the primary tumors. The emergence of these secondary tumors was monitored over time (PEP005 cured). In a parallel group of animals (n=5) PEP005 treatment regressed the primary tumors, but after 11-13 days the primary tumors re-emerged. These animals also received secondary tumors as above and their emergence was again monitored over time (PEP005 regressed). Two control groups were included. One group (n=6) received no primary tumors, but was treated s.c. with PEP005 and received secondary tumors on the opposite flank (white triangles, PEP005 s.c.). […] Secondary B16-OVA (10^5) were injected i.v. on d6 and animals were sacrificed on d27 and lung metastases counted.\nas §1"}, "[3]": {"test_system": "B16 tumors", "experiment": "PEP005-mediated cure of primaries plus DC therapy, growth of secondary tumors, B16 model", "details": "DC p=0.009", "protocol": "FIGS. 13A to C are graphical representations showing synergistic effects between PEP005-mediated cure of primaries and DC therapy on the growth of secondary tumors and on CD8^+ T-cell induction. (A) On d−3 C57BL/6 mice where inoculated with 2×10^6 B16-OVA cells on the right flank (primary tumor) and 2×10^4 B16-OVA cells on the left flank (secondary tumor). On d0 and d1 the primary B16-OVA tumors, which has reach 30.4 mm^2+SD6 were cured with i.t. injections of 25 μg of PEP005 formulated in PEG400. On d4 and d11 mice received DC therapy using DC2.4 cells pulsed with SVYDFFVWL [SEQ ID NO:1], KVPRNQDWL [SEQ ID NO:4] and SIINFEKL [SEQ ID NO:2] peptides, and ovalbumin (n=12, PEP005+DC). […] A third group was inoculated with secondary tumors only and received the DC therapy (n=14, DC), and the control group was given only secondary tumors and received no treatment (n=18, Control). Animals were culled when the secondary tumors reached 100 mm^2. (B) The experiment in (A) was repeated in the B16 model (n=6 per group). On d−2 C57BL/6 mice were inoculated with 10^6 B16 cells on the right flank (primary tumor) and 5×10^4 cells on the left flank (secondary tumors). […] Animal groups were established and treated as in (A) except that on d12 mice were sacrificed and splenocytes analyzed in an ex vivo ELISPOT assay for responses to SVYDFFVWL [SEQ ID NO:1], KVPRNQDWL [SEQ ID NO:4] and SIINFEKL [SEQ ID NO:2] […]"}, "[4]": {"details": "topical PEP005, tumors 10-20 mm^2 at treatment"}}}
{"smiles": "C/C=C(/C)C(=O)O[C@H]1C(C)=C[C@]23C(=O)[C@@H](C=C(CO)[C@@H](O)[C@]12O)[C@H]1[C@@H](C[C@H]3C)C1(C)C", "note": "[PEP005, ingenol-3-angelate]", "values": [{"measurement": "SIINFEKL-specific CD8+ T-cell responses", "setting": "[1]; animals with Lewis lung-OVA tumors treated topically with PEP005", "value": "a range of responses that correlated with the effectiveness of the treatment"}, {"measurement": "SIINFEKL-specific CD8+ T-cell responses, mean ± SD for all mice", "setting": "[1]; topical PEP005, mice without tumors, assay sensitivity about five spots", "value": "6.3±9.8 spots per 10^6 splenocytes"}, {"measurement": "animals showing a limited response of five treated", "setting": "[1]; [4]", "value": "two"}, {"measurement": "animals showing a partial response of five treated", "setting": "[1]; [4]", "value": "two"}, {"measurement": "tumors cured of the five tumors treated", "setting": "[1]; [4]", "value": "one"}, {"measurement": "number of SIINFEKL-specific CD8+ T-cells vs untreated control animals", "setting": "[2]; PEP005 injected s.c. rather than into a tumor", "value": "failed to increase"}, {"measurement": "SIINFEKL-specific CD8+ T-cells vs control animals", "setting": "[2]; primary tumors cured by PEP005, p=0.008 unpaired t-Test", "value": "significantly more"}, {"measurement": "growth of secondaries vs no treatment controls", "setting": "[3]", "value": "did not provide a significant delay of tumor growth"}]}
